This note sets out measurements from patent US10407404B2, “Physical form of a SGR modulator” (ASTRAZENECA AB, priority 2016, dated 2019).

What all share (format): cell-based
Assay [1] deals with T1, human glucocorticoid receptor (GR) (Homo sapiens, UniProt P04150).
T1 construct: endogenous in cells; host or cells: ChagoK1 18:7:2 s4/GRE (human bronchogenic carcinoma ChaGo K1, ATCC HTB 168, stably carrying MMTV-GRE-LacZ reporter)
T1 sequence (P04150 1-777): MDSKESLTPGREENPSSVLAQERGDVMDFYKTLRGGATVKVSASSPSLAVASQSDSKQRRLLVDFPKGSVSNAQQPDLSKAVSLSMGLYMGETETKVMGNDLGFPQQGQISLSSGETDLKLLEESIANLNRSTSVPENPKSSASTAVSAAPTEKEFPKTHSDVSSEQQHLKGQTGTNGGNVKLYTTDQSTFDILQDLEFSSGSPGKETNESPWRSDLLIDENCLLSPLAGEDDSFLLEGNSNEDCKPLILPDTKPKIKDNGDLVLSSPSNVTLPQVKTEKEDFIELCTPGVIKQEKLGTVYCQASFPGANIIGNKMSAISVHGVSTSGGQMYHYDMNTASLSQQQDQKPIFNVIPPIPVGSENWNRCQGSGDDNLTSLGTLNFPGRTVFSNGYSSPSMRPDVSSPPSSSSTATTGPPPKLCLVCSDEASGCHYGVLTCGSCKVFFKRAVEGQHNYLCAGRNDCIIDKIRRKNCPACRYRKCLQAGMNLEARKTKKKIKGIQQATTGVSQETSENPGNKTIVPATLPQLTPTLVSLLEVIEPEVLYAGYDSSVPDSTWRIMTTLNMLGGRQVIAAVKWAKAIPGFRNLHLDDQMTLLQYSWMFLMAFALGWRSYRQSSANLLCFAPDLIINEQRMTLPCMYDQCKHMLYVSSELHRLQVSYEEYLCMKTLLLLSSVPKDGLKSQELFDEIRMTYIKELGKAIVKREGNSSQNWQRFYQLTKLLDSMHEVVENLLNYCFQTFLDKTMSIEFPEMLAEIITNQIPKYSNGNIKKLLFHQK
Nature of the assay: GRE Agonist Assay (ChagoK1 18:7:2 s4/GRE MMTV-GRE-LacZ reporter cell line). From the text:
(§1) A reporter cell line (ChagoK1 18:7:2 s4/GRE) was established by stable transfection of the human bronchogenic carcinoma cell line, ChaGo K1 (ATCC: HTB 168) with a MMTV-GRE-LacZ reporter construct. The generated cell line allows for identification of compounds showing agonist activity at the human glucocorticoid receptor (GR) via induction of LacZ gene expression. Ligand-activated GR binds to the Glucocorticoid Response Element (GRE) in the promoter of the LacZ gene and transcription is initiated. The resulting beta-galactosidase activity is measured through a colour reaction (change in absorbance).
Cryo-preserved ChagoK1 18:7:2 s4/GRE cells were suspended in RPMI medium with 10% FBS, 1% NEAA and 1% sodium pyruvate, and seeded as 50000 cells/200 ul/well in 96-well plates and cultured at 37° C. with 5% CO2 and 95% humidity for 24 hours. 1 μl compound was added at different concentrations to the cells and incubated for another 24 hours. Cells were washed once in PBS and lysed with 50 al of 0.1% Triton-X for 10 min at room temperature. […] The plates were measured at 420 nm for absorbance in a SpectraMax reader (Molecular Device).
The relative efficacy (% effect) of a compound is calculated based on the full agonist effect of dexamethasone: % Effect=((Sample abs−min abs)/(max abs−min abs))×100 […]

Assay [2] has as its target T1, human glucocorticoid receptor (GR). Nature of the assay: GRE Antagonist Assay (ChagoK1 18:7:2 s4/GRE reporter cell line, dexamethasone pre-stimulated). Conditions: ChaGo-K-1, relative to full antagonist effect of Mifepristone (RU486), read-out: TA antagonist Observed max Effect at 1 μM (%).
Source text: as §1, with “celline,” for “cell line,”, “antagonist” for “agonist”, “reduction” for “induction”, “Dexamethasone-activated” for “Ligand-activated”, “Antagonistic properties of compounds are assessed as” for “The resulting”, “intensity reduction from pre-stimulation with dexamethasone” for “activity is measured”
Cryo-preserved ChagoK1 18:7:2 s4/GRE cells were suspended in RPMI medium with 10% FBS, 1% NEAA and 1% sodium pyruvate, and seeded as 50000 cells/200 ul/well in 96-well plates and cultured at 37° C. with 5% CO2 and 95% humidity for 24 hr. Cells were pre-stimulated with 2 μl dexamethasone (70 nM final conc) for 4-5 hr, before addition of 1 μl compound at different concentrations and incubation for an additional 24 hr. […] The plates were measured at 420 nm for absorbance in a SpectraMax reader (Molecular Device).
The relative efficacy (% effect) of a compound is calculated based on the full antagonist effect of the reference compound Mifepristone (RU486): % Effect=((Sample abs−min abs)/(max abs−min abs))×100 […]

Assay [3] relates to release of TNFα from whole blood stimulated with LPS. Nature of the assay: In vitro human whole blood: inhibition of TNFα release after LPS stimulation. Conditions: LPS 30 μg/mL, 18 hr, read-out: TNFα pIC50 (converted). The procedure:
The anti-inflammatory activity of compounds and prednisolone was determined in vitro by their ability to inhibit the release of TNFα from whole blood stimulated with LPS. Venous blood from human donors was collected and anti-coagulated with sodium heparin and transferred to a sterile polystyrene round bottomed plate (Corning) at 190 μL per well.
Compounds were prepared from 10 mM stock solutions in dimethylsulfoxide (DMSO, Sigma) by serially diluting 1/3 in DMSO to produce a master plate with the top concentration at 3.33 mM and the lowest concentration at 0.1 μM. Compounds from the master plate were added to the blood at 1 μL/well (1/200) dilution to give final concentrations ranging between […] and 0.5 nM. Control wells received 1 μL DMSO only and the final DMSO concentration in all wells was 0.5%. […]
TNFα protein levels were determined using an AlphaLISA hTNFα kit (Perkin Elmer) according to the manufacturer's instructions. […] The samples were read at 615 nm with excitation at 680 nm using an Envision plate reader. TNFα in the samples was determined by extrapolation from the standard curve and expressed as pg/mL.
The % inhibition of TNFα was determined by the equation: % inhibition=(1−(A−B)/(C−B))×100 Here, A=TNFα in LPS stimulated samples containing compound, B=TNFα in unstimulated samples. and C=TNFα in LPS stimulated samples without compound. […]

Assay [4] deals with tyrosine aminotransferase (TAT) mRNA expression. Nature of the assay: Tyrosine aminotransferase (TAT) mRNA expression in vitro assay in human primary hepatocytes. Conditions: 18 hr, human cryopreserved primary hepatocytes, versus DMSO control, 2^-ΔΔCt, range and n in brackets. The procedure: The impact of test compounds on hyperglycemic events were assessed by looking at changes in mRNA expression of the gene encoding tyrosine aminotransferase (TAT), which is under direct regulation of the glucocorticoid receptor in human hepatocytes.
Human cryopreserved primary hepatocytes (BioreclamationIVT, M00995-P lot EPB) were plated to 24-well collagen I-coated plates (Becton Dickinson, 354408). Cells were allowed to attach for 4 hr before being challenged with test compounds overnight (18 hr). Cells were harvested and total RNA isolated using RNeasy Plus Mini Kit (Qiagen, 74136) followed by cDNA synthesis using High Capacity cDNA reverse transcription kit (Applied Biosystems, 4368813). Real-time RT PCR was performed on an Applied Biosystems 7500 PCR cycler, using Taqman primers for TAT (Life technologies, Hs00356930_ml) and the reference gene hypoxanthine phosphoribosyltransferase 1 (Life technologies, Hs99999909_ml).
Human cryopreserved primary hepatocytes were transferred in to pre-warmed (37° C.) plating medium (BioreclamationIVT, Z990003) and diluted to 0.7×10^6 viable cells/mL. […] Real-time RT PCR was carried out using TaqMan reagents (Life technologies) on the 7500 PCR cycler, and Ct-values for TAT gene expression was normalised to the control gene and expressed as fold change compared to DMSO control using the 2^−ΔΔCt method.

`CC(C)[C@H](NC(=O)C(C)(F)F)[C@H](Oc1ccc2c(cnn2-c2ccc(=O)n(C)c2)c1)c1ccccc1` [Example 1, 2,2-difluoro-N-[(1R,2S)-3-methyl-1-{[1-(1-methyl-6-oxo-1,6-dihydropyridin-3-yl)-1H-indazol-5-yl]oxy}-1-phenylbutan-2-yl]propanamide]: the Emax at 1 µM was 39% in assay [1] (ChaGo-K-1, at 1 μM, relative to full agonist effect of dexamethasone, read-out: TA agonist Observed max Effect at 1 μM (%)) and 70% in assay [2]. Moreover, the EC50 in assay [1] (transactivation, agonist mode, 24 h incubation, read-out: TA agonist pEC50 (converted)) was 12.6 nM. Moreover, the IC50 in assay [3] is 631 nM.
As for `C[C@]12C=CC(=O)C=C1CC[C@@H]1[C@@H]2[C@@H](O)C[C@@]2(C)[C@H]1CC[C@]2(O)C(=O)CO` [Prednisolone, reference compound], the “Fold Change Tyrosine Aminotransferase Gene Expression Relative to Control (1 μM)” value in assay [4] is 2.5 (1.4-4.2, n = 8). The IC50 in assay [3] is 316 nM.
